Read-outs that look alike come from different tables or passages of the source.
Tests used:
[1] = test system: food-source rabbit eyes (cornea); details: for Prediction EPA: EPA prediction model from direct and metabolic results; for Prediction GHS: GHS prediction model from direct and metabolic results
Text: FIG. 3 depicts the EPA and GHS prediction models. […] Meta. = Metabolic; GHS = Globally Harmonized System of Classification and Labeling of chemicals; EPA = Environmental Protection Agency; NC = Not Classified; * = Apical death of epithelium of at least 10%; must be a clear line of nuclei.
(§1) Because of these modifications, we have updated our prediction model to include the metabolic test to identify reversible irritants or toxicity as shown in FIG. 3. For GHS (A) and EPA (B) classification systems, if the direct procedure (100 µL, washed after 1 minute exposure with 20 mL tear solution using a blunt end syringe 2-5 cm from cornea to create a laminar flow across the tissue) is negative, the metabolic result is used to confirm the negative result or identify reversible irritants or toxicity (GHS 2 or EPA II) if increased DoI is detected. […] For the GHS classification system, the NC is defined by no stromal DoI and a negative metabolic test.

[2] = test system: rabbit eye (cornea, iris, and conjunctiva); details: Lebrun et al., cited from earlier work; for in vivo EPA: EPA classification, 2020 / NICEATM, 2006; for in vivo GHS: GHS classification, 2020
[3] = test system: food-source rabbit eyes (cornea)
Protocol: as §1
Only food source eyes are suitable for this procedure.
3) Put the lid onto the 12 well plate(s) and place into the incubator (37° C., 5% CO2) for one hour.
3) Place an eye on the holder and carefully place a new cloning ring in the middle of the cornea without scratching it.
9) Start the timer for one minute.
10) After the one minute is over, remove the dosing ring and put in the proper container, and pick up the tissue without touching the cornea and hold it over the container for liquid waste.

[4] = test system: food-source rabbit eyes (cornea); remark: listed apart in the source
Protocol: All of the steps of the META test are the same as the direct test except for the dosing step. For the META, 100 µL of tear solution (saline with ascorbic acid, protein) is first added to the dosing ring, followed by the addition of 100 µL of the material to be tested.
as §1
NOTE: The steps of the main procedure are the same as described above. The only deviations are described below and apply to the dosing of the corneas and interpretation of results. • 1) After the pre-incubation, remove the 12 well plate(s) from the incubator and place in the hood. • 2) Using a skinny sharpie, label the wells on the lid (water or specific chemical). • 3) Place an eye on the holder and carefully place a new cloning ring in the middle of the cornea without scratching it. • 4) Remove the needle from the syringe by twisting it off. Fill the syringe with 40 mL of 1x PBS by aliquoting it from the beaker. • 5) Put the needle back on the syringe by twisting on and remove the cap protecting the needle. Place the syringe flat on a sterile piece of foil. • 6) Obtain the timer. Add 100 uL of the T8 tear solution in the center of the dosing ring. Ensure the entire surface is covered. • 7) Retrieve 100 uL of the sample and aspirate in the center of the dosing ring, ensuring the entire surface is exposed.

[5] = 100 µL, 1 minute exposure, tear solution wash, 24 hours organ culture
[6] = 6 minutes, 100 µL tear solution then 100 µL test material, run only where Direct was 0%

Meta. (Metabolic) [4]	Compound	Prediction EPA [1]	Prediction GHS [1]	in vivo EPA [2]	in vivo GHS [2]	Direct (depth of injury, stromal) [3, 5]	Meta. (Metabolic) [4, 6]	Direct (depth of injury, stromal) ([3]; rabbit, 1 min)
	N#CCCCl [3-Chloropropionitrile]	III (category III includes damage to the epithelium of the stroma up to 15%)	2 (Category 2 is identified by any stromal DoI up to 18% or a positive metabolic test)	III (III (damage is reversed within 7 days of exposure))	2B (2 B, within 7 days)	12.0%		
	C[Si](C)(C)O[Si](C)(C)C [Hexamethyldisiloxane]					0.0%	Neg.	
	CCC(C)(C)C(=O)O [2,2-Dimethyl butanoic acid]			I (I (corrosive, lesions are not reversed within 21 days))	1 (1 (extreme and/or irreversible irritation effects that are not reversed within 21 days))			27.4%
	Diethylaminopropionitrile	II (category II includes damage greater than 15% but less than 25% (or is positive for cell death by the metabolic test))	1 (GHS category 1 is defined as stromal damage of 18% or greater)	II (II (damage is reversed within 21 days of exposure))	1 (1 (extreme and/or irreversible irritation effects that are not reversed within 21 days))	56.8%		
	CCCCCCCCBr [n-Octyl bromide]					0.0%		
	CCC(C)c1ccccc1 (stereo not shown) [sec-Butylbenzene]					0.0%	Neg.	
	CC(O)C(=O)O (stereo not shown) [Lactic acid]	I (category I includes damage greater than 25%)		I (I (corrosive, lesions are not reversed within 21 days))	1 (1 (extreme and/or irreversible irritation effects that are not reversed within 21 days))			100.0%
	CCOC(=O)C(C)(C)O [2-Hydroxy isobutyric acid ethyl ester]			*I^2 (I (corrosive, lesions are not reversed within 21 days))	1 (1 (extreme and/or irreversible irritation effects that are not reversed within 21 days))			42.3%
	OCC(O)CO [Glycerol]							0.0%
	CCCCCC [Hexane]					0.0%	Neg.	
	OC1CCCCC1 [Cyclohexanol]	I (category I includes damage greater than 25%)	1 (GHS category 1 is defined as stromal damage of 18% or greater)	I (I (corrosive, lesions are not reversed within 21 days))	1 (1 (extreme and/or irreversible irritation effects that are not reversed within 21 days))	29.6%		
	CC(=O)O [Acetic Acid (10%), Acetic Acid]			I (I (corrosive, lesions are not reversed within 21 days))	1 (1 (extreme and/or irreversible irritation effects that are not reversed within 21 days))			
	C=CC(=O)OCCO [Hydroxyethyl acrylate]		1 (GHS category 1 is defined as stromal damage of 18% or greater)			100.0%		
	OCCCCC(O)CO (stereo not shown) [1,2,6-Hexanetriol]					0.0%	Neg.	
	OC1CCCC1 [Cyclopentanol]	I (category I includes damage greater than 25%)	1 (GHS category 1 is defined as stromal damage of 18% or greater)	II (II (damage is reversed within 21 days of exposure))	2B (2 B, within 7 days)	30.4%		
Pos.	CC(=O)CC(=O)OC(C)C [Isopropyl acetoacetate]			III (III (damage is reversed within 7 days of exposure))	2B (2 B, within 7 days)			0.0%

Meta. (Metabolic) [4]	Compound	Prediction EPA [1]	Prediction GHS [1]	in vivo EPA [2]	in vivo GHS [2]	Direct (depth of injury, stromal) [3, 5]	Meta. (Metabolic) [4, 6]	Direct (depth of injury, stromal) ([3]; rabbit, 1 min)
	C=CC(=O)OCCCCCC(C)C [iso-Octyl acrylate]					0.0%		
	COCC(O)CO (stereo not shown) [3-Methoxy-1,2-propanediol]					0.0%	Neg.	
Neg.	CC(O)CC(C)O (stereo not shown) [2,4-Pentanediol]							0.0%
	O=C(Cl)c1c(Cl)cccc1Cl [2,6-Dichlorobenzoyl chloride]	II (category II includes damage greater than 15% but less than 25% (or is positive for cell death by the metabolic test))	2 (Category 2 is identified by any stromal DoI up to 18% or a positive metabolic test)	II (II (damage is reversed within 21 days of exposure))	2A (2 A, irritation effects are reversed within 21 days)	0.0%	Pos.	
	CCCCCC(C)=O [Methyl amyl ketone]	III (category III includes damage to the epithelium of the stroma up to 15%)	2 (Category 2 is identified by any stromal DoI up to 18% or a positive metabolic test)	III (III (damage is reversed within 7 days of exposure))		6.0%		
	Cc1ccccc1 [Toluene]		1 (GHS category 1 is defined as stromal damage of 18% or greater)			50.1%		
	BrCCCCCCBr [1,6-Dibromohexane]					0.0%	Neg.	
	CC(C)=O [Acetone]	II (category II includes damage greater than 15% but less than 25% (or is positive for cell death by the metabolic test))	2 (Category 2 is identified by any stromal DoI up to 18% or a positive metabolic test)	II (II (damage is reversed within 21 days of exposure))	2A (2 A, irritation effects are reversed within 21 days)	0.0%	Pos.	
Neg.	CCCCCCCCOCCCCCCCC [Dioctyl ether]							0.0%
	CCCOCC(C)O (stereo not shown) [Propasol solvent P]	II (category II includes damage greater than 15% but less than 25% (or is positive for cell death by the metabolic test))	1 (GHS category 1 is defined as stromal damage of 18% or greater)	II (II (damage is reversed within 21 days of exposure))	2A (2 A, irritation effects are reversed within 21 days)	18.3%		
Neg.	CC(O)CO (stereo not shown) [Propylene glycol]							0.0%
	O=S(=O)(Cl)c1ccccc1 [Benzenesulphonylchloride]	I (category I includes damage greater than 25%)	1 (GHS category 1 is defined as stromal damage of 18% or greater)	*I^2 (I (corrosive, lesions are not reversed within 21 days))	1 (1 (extreme and/or irreversible irritation effects that are not reversed within 21 days))	52.8%		
	CC(C)CC(=O)CC(C)C [Di-iso-butyl ketone]							0.0%
	COC(C)=O [Methyl acetate]			II (II (damage is reversed within 21 days of exposure))	2A (2 A, irritation effects are reversed within 21 days)			24.0%
	CC(C)CCCCCOC(=O)CS [iso-Octylthioglycolate]					0.0%	Neg.	
	CCCC(C)CO (stereo not shown) [2-Methyl-1-pentanol]	III (category III includes damage to the epithelium of the stroma up to 15%)		III (III (damage is reversed within 7 days of exposure))	2B (2 B, within 7 days)			5.7%

Source: US20230081986A1, “METHOD AND REAGENTS TO IMPROVE NONANIMAL OCULAR TOXICITY TESTS” (Lebrun Labs LLC, priority 2021, published 2023)
